Experimental data: a melting point compilation (Tetko et al.; mined from patent text by program, amines drawn as free bases though some values may be those of a salt)

SMILES | melting point [°C]
Cc1nn(-c2cc(C(=O)O)c(Cl)cc2F)c(=O)n1C(F)F | 132 to 135
O=C(CN1CC=CCC1)NC(=O)N1CCN2C(=O)OC(c3ccccc3)(c3ccccc3)C2C1 (stereo not given) | 156 to 157
CSC(NCc1ccc(N)cc1)=C(C#N)C#N | 100 to 102
CC(C)(C)c1cc(SCCC(=O)NC2CCC3CC2C3(C)C)cc(C(C)(C)C)c1O (stereo not given) | 152 to 154
CCOC(=O)C(C(=O)OCC)C(=O)c1cc(OC)c(OC)c([N+](=O)[O-])c1 | 70
O=C1CCC(N2Cc3c(OCc4ccc(Cn5ccnc5)cc4)cccc3C2=O)C(=O)N1 (stereo not given) | 248 to 250
COc1cc(Nc2c(NC(C)C(C)(C)C)c(=O)c2=O)c2ncccc2c1 (stereo not given) | 243 to 245
CCc1cc(O)c2c(ccc3nc[nH]c32)n1 | 309 to 317
CCOC(=O)C1=C(C)NC(C(OCC)OCC)=C(C(=O)OCC)C1c1cccc(O)c1 (stereo not given) | 107 to 108
N=c1cc(N)nc2n1CCS2 | 146 to 148
C[C@H](NC(=O)OC(C)(C)C)C(=O)N1CCC[C@H]1C(=O)N1CCC[C@H]1C(=O)OCc1ccccc1 | 143 to 145
O=C1c2ccccc2S(=O)(=O)N1CCCCBr | 72
CC1(C)CCCC=C1c1ccc(C(=O)O)cc1 | 181
Cn1cc(C(=O)F)c(C(F)F)c1 | 53 to 54
Cn1nc(CCc2cc(=O)[nH]c(N)n2)c2ccc(C(=O)NC[C@H](NS(=O)(=O)c3cccc4cnccc34)C(=O)O)cc21 | 122 to 125
CN(C#N)C1CN(C(=O)Nc2ccc(C(F)(F)F)cc2)N=C1c1ccc(Cl)cc1 (stereo not given) | 216 to 217
CCOC(=O)C(=C(c1ccc(F)cc1)c1ccc(F)cc1)c1nnnn1C | 144 to 145
CC(C)CC(NC(=O)C1CCCN1)C(=O)NCC(=O)Oc1c(Cl)c(Cl)c(Cl)c(Cl)c1Cl (stereo not given) | 169 to 171
COc1cc(Nc2c(C#N)cnc3cc(/C=C/CCN4CCOCC4)c(OC)cc23)c(Cl)cc1Cl | 141 to 143
CCCc1c(OCC(=O)O)ccc(C(C)=O)c1O | 128 to 130
CCOC(=O)CN(NC(=O)OC(C)(C)C)C(=O)OCc1ccccc1 | 117 to 119
O=C(NCCCCC(NC(=O)OCC1c2ccccc2-c2ccccc21)C(=O)Oc1c(F)c(F)c(F)c(F)c1F)OCC1c2ccccc2Oc2ccccc21 (stereo not given) | 150 to 152
Cc1cc(C)c2c(c1O)C(N)C(C1CCCCC1)C2 (stereo not given) | 125 to 126
COc1cc(NC2=C(Cl)C(=O)c3ccccc3C2=O)ccc1S(=O)(=O)Nc1ccc(C)cc1 | 186 to 189
COC(=O)c1ccc(NS(=O)(=O)c2cc(OCC(F)(F)F)cc(OCC(F)(F)F)c2)cn1 | 158 to 160

SMILES | melting point [°C]
Nc1c(-c2cccc(Oc3ccccc3)c2)cnc2ncnn12 | 248 to 250
CC(=O)OCCN1CCN(C(=O)Cn2c(=O)sc3ncc(Cl)cc32)CC1 | 153 to 155
CC1CC(Nc2ccc(F)cc2)c2cc(F)ccc2N1 (stereo not given) | 120 to 122
CN1C(=O)C2(COc3cc4c(cc32)OCCO4)c2c(C(=O)NCc3ccc(F)cc3)cccc21 (stereo not given) | 149 to 150
CC(C)c1ccc2c(c1)c(-c1ccccc1Cl)c(C(=O)O)c(=O)n2C | 184 to 185
Cc1cc([N+](=O)[O-])ccc1C(=O)N=CN(C)C | 118 to 121
CC(=O)NCCn1ccc2ncnc(Nc3ccc(Oc4cccc5sncc45)c(Br)c3)c21 | 132 to 135
COc1ccc(C(C)(C)C)cc1C(N)=NO | 132 to 133
Clc1cc2cc[nH]c2c2cccnc12 | 248 to 250
O=C(NCc1ccc(Cl)c(Cl)c1)c1cn2c(=O)n(Cc3ccc(Cl)cc3)c(=O)cc2s1 | 218 to 219
CCc1oc2ccccc2c1C(=O)N(Cc1ccccc1)Cc1ccc2c(Br)c(OCC#N)ccc2c1 | 92 to 100
CCOC(=O)N1CCN(C(=S)Cl)CC1 | 107 to 111
O=C(O)C[C@@H](Oc1c(Br)cc(-c2c3ccccc3c(Br)c3sc4ccccc4c23)cc1Br)C(=O)O | 163 to 164
CCn1nc(-c2ccc(F)cc2)c(-c2ccncc2)c1C(=O)N(C)Cc1ccccc1 | 148 to 149
CON=C(Nc1nc(C)cc(C)n1)NS(=O)(=O)c1ccccc1S(=O)(=O)OC | 130 to 138
Cc1cc(S(=O)(=O)F)ccc1Br | 47 to 48
Cc1cc(Cl)ccc1NS(=O)(=O)c1cc(S(=O)(=O)Nc2ccc(Cl)cc2C)c2cc(O)ccc2c1 | 140 to 142
COc1cc(OCC(=O)O)c(C)cc1SCc1ccc(OCc2ccc(C(F)(F)F)cc2)cc1 | 145
CSCC[C@H](NC(=O)[C@@H](N)CC(C)C)[C@@H](O)c1nccs1 | 83 to 85
Cc1cc2c(cc1-c1ccc(O)c(C=O)c1)C(C)(C)CCC2(C)C | 138 to 139
CC(=O)OC1CSC(Oc2cc(-c3cccnc3)ccc2Cl)C(OC(C)=O)C1OC(C)=O (stereo not given) | 155
C[C@H]1CCCC(C)(C)[C@@H]1[C@@H](O)c1cccc(Cl)c1 | 58 to 60
CCN(CC)CCNC(=O)c1cc(Cl)c(N)cc1OCCC(C)O (stereo not given) | 136 to 138
O=S(=O)(F)CCCCCCCc1ccc(O)cc1 | 47 to 51
CCn1nc(C(F)(F)F)c(CS(=O)(=O)C2=NOC(C)(CCl)C2)c1OC (stereo not given) | 139 to 140

SMILES | melting point [°C]
C[C@H](O)CNc1cc(OCc2ccccc2)ccc1C=O | 68 to 69
CN(CCC#N)c1nc(Nc2cccc(NS(C)(=O)=O)c2)nc2[nH]cnc12 | 218 to 222
Cc1ccc(NC(=O)c2cccc(N(C)C)c2)cc1NC(=O)c1ccc(N(C)CCCN(C)C)cc1 | 178 to 179
COCCCOc1cc(CBr)ccc1OC | 50 to 51
CCCCC(=O)Nc1cccc([N+](=O)[O-])c1 | 65
CC12CCC(O)CC1CCC1C2CCC2(C)C(C(=O)COc3cccnc3)CCC12 (stereo not given) | 63 to 66
CC(C)(C)c1cc(O)cc(C(C)(C)C)c1S(=O)c1nnc(-c2ccccn2)o1 (stereo not given) | 172 to 173
CCCCCCc1c(Cl)nc(N=CN(C)C)nc1Cl | 59 to 60
Cc1ccc(Nc2cc(C(=O)O)c(Nc3ccc(C)cc3)cc2C(=O)O)cc1 | 310
CC(=O)OC1CSC(Sc2ccc3ccccc3c2)C(OC(C)=O)C1OC(C)=O (stereo not given) | 151
CC(=O)Nc1nc2c(s1)-c1nc(-c3ccccc3Cl)ncc1C2 | 257
COc1cc(Cc2cnc(N)nc2N)cc2c1OC(C)(C)C=C2C#CCO | 236 to 237
CC(=O)c1cccc(-c2ncc(N=CN(C)C)cn2)c1 | 146 to 148
Cc1nc(N2C[C@@H](C)N(Cc3ccc(C(F)(F)F)cc3)C2=O)sc1C(N)=O | 110 to 112
NC(=O)N1Cc2ccccc2-c2ccccc2C1 | 212 to 214
CN(C)CCCCNC(=O)c1cnc2c(c1)N(Cc1cc(Cl)ccc1C(F)(F)F)CCN2 | 182
CCOC(=O)c1ccc2nc(NC(C)=O)n(S(=O)(=O)N(C)C)c2c1 | 155 to 157
Cc1nccn1Cc1ccc(COc2cccc3c2CN(C2CCC(=O)NC2=O)C3=O)cc1 (stereo not given) | 275 to 277
NC(=O)Nc1ccc2c(=O)n(CCCCN3CC=C(c4ccccc4)CC3)c(=O)[nH]c2c1 | 260
Cc1c(NC(=O)CC(CSC(=O)Cc2ccccc2)c2ccccc2)cccc1C(=O)O (stereo not given) | 135 to 137
O=S(=O)(Nc1nccnc1OCc1ccccn1)c1cccc(Cl)c1Cl | 167 to 168
O=Cc1cnc(-c2ccc(OC(F)(F)F)cc2)nc1 | 114 to 115
Cc1nc2c(c(=O)[nH]1)-c1cc(S(=O)(=O)Nc3ccc(F)cc3)ccc1CC2 | > 260
Cc1nc2c(cc1Br)c(=O)c(C(=O)NCc1ccc(Cl)cc1)cn2C | 266 to 268
Cn1c(-c2ccccc2)nc2nc(-c3ccc(Cl)cc3)nn2c1=S | 267 to 270

SMILES | melting point [°C]
N#Cc1cccn1-c1cc(C(=O)N=C(N)N)cc(C(=O)N=C(N)N)c1 | 251 to 253
COCC(=O)N[C@@H]1CCOc2ccccc21 | 109 to 112
CCCOc1ccc(S(=O)(=O)N2CCC(C(=O)OCC)CC2)cc1-c1nc2cc(Cl)c([N+](=O)[O-])cc2c(=O)[nH]1 | 203 to 204
CCC(CC)(CCC#N)C(NC(=O)c1ccc(Cl)cc1)NC(=N[N+](=O)[O-])Nc1cccnc1 (stereo not given) | 100 to 110
CCN1CCC(=NO)c2ccn(CCCCN3CCC(C(=O)c4ccc(F)cc4)CC3)c2C1=O | 158 to 160
O=C(CO)NCCCOCCCCOCCCNC(=O)CO | 67 to 71
CC(=O)OCc1cc(N)ccc1N1C(=O)c2ccc(Cl)cc2C1=O | 136 to 138
CCn1nnc(NC(=O)C(c2ccccc2)c2ccccc2)n1 | 169 to 170
CCOCCc1cc(C)c(OCC=NO)cc1C | 66 to 70
N#CNC(=NC1CCN(Cc2ccccc2)CC1)N1Cc2ccccc2C1 | 191 to 192
O=C(NCC(F)(F)F)C1(CCCCc2ccc(NS(=O)(=O)c3ccccc3)cc2)c2ccccc2-c2ccccc21 | 130 to 132
Oc1cc2c(nn1)CCCCCCCCCC2 | 188 to 189
CSc1ccc2nc(N)c(C(N)=O)cc2c1 | 229 to 242
O=c1[nH]c2cc(Cl)cc(Cl)c2c(=O)n1Cc1ccncc1 | 354 to 364
NC(N)=Nc1nc(-c2ccc(-c3nc(N)n[nH]3)o2)cs1 | > 300
CC12C=CC(=O)C=C1C(F)CC1C2=CCC2(C)C(C(=O)CCl)=CCC12 (stereo not given) | 196 to 200
O=C(O)c1cccc(-c2ncco2)c1 | 187 to 188
NNc1ccc(C2CCCCC2)cc1 | 115 to 116
CCOC1CN(Cc2ccccc2OC)Cc2cc(OC)c(O)cc21 (stereo not given) | 101 to 102
CS(=O)(=O)c1csc(NC(=O)c2ccccc2O)n1 | 231 to 235
O=C1c2cscc2Nc2ccccc2N1C1C=CCCC1 (stereo not given) | 147 to 149
Fc1ccc(Oc2ccc3nc(Cl)ncc3c2)c(F)c1 | 110 to 113
COC(=O)C1CCCN1S(N)(=O)=O (stereo not given) | 166 to 168
CCOC(=O)c1cnc2cc(NC(C)=O)c(F)cc2c1O | 320
COC(=O)c1cccc(C(=O)Nc2cccc3cc(Br)cnc23)c1 | 157
